Results published in ChEMBL document CHEMBL1152117, “A versatile synthesis of 2-methoxyestradiol, an endogenous metabolite of estradiol which inhibits tubulin polymerization by binding to the colchicine binding site” (Bioorg Med Chem Lett, 1994).
Activity calls are given as the source filed them. The calls are words filed in the database; no cut-off is given here.

Experiments:
Mus musculus [1] = assay: In vivo inhibition of neovascularization of solid tumors when administered orally in mice; Active; assay type: functional, organism-based
Mus musculus [2] = assay: In vivo inhibition of growth of solid tumors when administered orally in mice; Active; assay type: functional, organism-based

COc1cc2c(cc1O)CC[C@@H]1[C@@H]2CC[C@]2(C)[C@@H](O)CC[C@@H]12
Activity (Mus musculus [1]): Active | Activity (Mus musculus [2]): Active
